One data set concerns the target human GLP1R (Homo sapiens (Human), UniProt P43220). As to the kind of experiment: cAMP responsive luciferase reporter assay, HEK293/CRE-Luc/hGLP1R cells. Conditions: for HEK293/CRE-LUC/hGLP1R S/N: highest RLU / RLU of untreated wells; for HEK293/CRE-LUC/hGLP1R Relative Potency (% P8 EC50) / HEK293/CRE-LUC/hGLP1R Relative Signal:Noise (% P8): relative to P8 of the same experiment. In kind it is cell-based. The source says: (§1) To test the activity of GLP1R agonist payloads, GLP1R agonist linker-payloads (LPs), and anti-GLP1R antibody tethered drug conjugates (ATDCs) of the disclosure, a cell-based cAMP responsive luciferase reporter assay was developed. To generate the assay cell line, the firefly luciferase gene was placed under the control of a cAMP response element (CRE) located upstream of a minimal promoter and transfected into HEK293 cells and referred to herein as HEK293/CRE-Luc cells.
(§2) Three-fold serial dilutions of free payloads or LPs were prepared in 100% DMSO, transferred to fresh assay media, and added to the cells at a final constant DMSO concentration of 0.2%. The last well in the plate served as a blank control containing only the assay media and 0.2% DMSO (untreated well) and was plotted as a continuation of the 3-fold serial dilution. Four to six hours later, luciferase activity was determined after the addition of One-Glo™ reagent (Promega, Cat #E6130) to each well. Relative light units (RLUs) were measured on an Envision luminometer (PerkinElmer) and EC50 values were determined using a four-parameter logistic equation over a 12-point dose response curve (GraphPad Prism). The signal to noise (S/N) was determined by taking the ratio of the highest RLU on the dose response curve to the RLU in the untreated wells.
GLP1R agonist linker payloads were conjugated to anti-hGLP1R antibodies via N-terminal heavy or light chain Q tags. Several resulting anti-GLP1R antibody tethered drug conjugates (ATDCs) were tested for activity in the HEK293/CRE-Luc/hGLP1R reporter assay as described above for the free GLP1R payload and linker-payload agonists.

The next data set has as its system HEK293/CRE-Luc cells. Put plainly: cAMP responsive luciferase reporter assay, HEK293/CRE-Luc cells (no hGLP1R expression). Type of data set: cell-based, human.
Source text: as §1, §2
For orientation: A reporter such as luciferase makes a cellular process visible.

Data set [1] can be described thus: Plasma stability of payloads and linker-payloads, human plasma. Conditions: for half-life at 2 µM: human, pooled plasma, pH 7.4, payload properties table, species not given, read-out: Plasma stability t½ (converted). Type of data set: in vitro ADME. On the procedure:
The plasma stability of payloads and linker payloads of the disclosure were measured. For the assay, pooled frozen plasma (human, mouse or monkey) was thawed in cold water or a 37° C. water bath prior to experiment. Plasma was centrifuged at 4000 rpm for 5 min if any clots were observed, they were subsequently removed. If required, the pH was adjusted to 7.4±0.1. For the preparation of compounds and positive controls, a 1 mM intermediate solution was prepared by diluting 10 μL of their stock solution with 90 μL DMSO; a 1 mM intermediate solution of the positive control (Propantheline) was prepared by diluting 10 μL of its stock solution with 90 μL ultrapure water. […] 98 μL of plasma was spiked with 2 μL of dosing solution (100 μM) to achieve the final concentration of 2 μM in duplicate. Samples were then incubated at 37° C. in a water bath. […] At each time point, 400 μL of stop solution (200 ng/mL tolbutamide plus 200 ng/mL labetalol in 50% ACN/MeOH) was added to precipitate protein and mixed thoroughly. Sample plates were then centrifuged at 4,000 rpm for 10 min. An aliquot of supernatant (50 μL) was transferred from each well and mixed with 100 μL ultra-pure water. The samples were then shaken at 800 rpm for approximately 10 min before submitting for LC-MS/MS analysis.

The text below walks through data of patent US20250161476A1 (REGENERON PHARMACEUTICALS, INC., priority 2020, published 2025).

Where a SMILES comes first, the peptide text is derived from it. [ ]: non-standard residue; d: D form. The star is where a group is joined. Bip(2'-Et,4'-O(CH2)4NH2) = CCc1cc(OCCCCN)ccc1-c1ccc(C[C@H](N)C(=O)O)cc1; Malonyl(2,2-Me2,histaminyl) = CC(C)(C(=O)NCCc1cnc[nH]1)C(=O)*; Nva(5-(3,5-Me2Ph)) = Cc1cc(C)cc(CCC[C@H](N)C(=O)O)c1; Ala(1H-tetrazol-5-yl) = N[C@@H](Cc1nnn[nH]1)C(=O)O; X5 = C[C@]1(C(=O)*)CCN(CCc2cnc[nH]2)C1=O; αMePhe(2-F) = C[C@](N)(Cc1ccccc1F)C(=O)O; X3 = CC(C)(C(=O)*)c1ccn[nH]1; X1 = O=C(CCCCCc1cnc[nH]1)*; X2 = CC(C)(C(N)=O)C(=O)*; X4 = CC(C)(C(=O)O)C(=O)*

Sequence of human GLP1R (P43220 24-463): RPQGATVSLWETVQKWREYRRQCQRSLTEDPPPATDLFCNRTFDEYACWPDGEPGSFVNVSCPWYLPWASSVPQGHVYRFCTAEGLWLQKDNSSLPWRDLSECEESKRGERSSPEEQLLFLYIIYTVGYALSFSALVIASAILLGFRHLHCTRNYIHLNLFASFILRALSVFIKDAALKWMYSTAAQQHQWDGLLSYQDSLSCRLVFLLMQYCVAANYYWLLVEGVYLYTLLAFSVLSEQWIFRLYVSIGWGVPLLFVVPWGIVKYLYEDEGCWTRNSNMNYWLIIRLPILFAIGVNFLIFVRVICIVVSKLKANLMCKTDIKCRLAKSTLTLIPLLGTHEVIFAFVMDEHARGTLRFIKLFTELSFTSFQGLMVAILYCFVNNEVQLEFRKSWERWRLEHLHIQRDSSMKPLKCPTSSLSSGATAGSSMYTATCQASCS

For `CCc1cc(OCCCCN)ccc1-c1ccc(C[C@H](NC(=O)[C@H](CC(=O)O)NC(=O)[C@H](CO)NC(=O)[C@@H](NC(=O)[C@](C)(Cc2ccccc2F)NC(=O)[C@@H](NC(=O)CNC(=O)[C@H](Cc2nn[nH]n2)NC(=O)C(C)(C)C(=O)O)[C@@H](C)O)[C@@H](C)O)C(=O)N[C@@H](CCCc2cc(C)cc(C)c2)C(N)=O)cc1` [P3] (X4-[Ala(1H-tetrazol-5-yl)]GT[αMePhe(2-F)]TSD[Bip(2'-Et,4'-O(CH2)4NH2)][Nva(5-(3,5-Me2Ph))]-NH2), on human GLP1R, the “HEK293/CRE-LUC/hGLP1R S/N” value was found to be 46.3, the “HEK293/CRE-LUC/hGLP1R Relative Potency (% P8 EC50)” value was found to be 0.3% and the “HEK293/CRE-LUC/hGLP1R Relative Signal:Noise (% P8)” value was 70.3%. In addition, in the data set on HEK293/CRE-Luc cells, the EC50 – broadly, the concentration needed to bring the measured effect to its halfway point – was above 200 nM and the “HEK293/CRE-LUC S/N” value came out at 1.2. In addition, in data set [1] (tested for 1 day (A)), the “Human plasma stability assay T½” value was above 57.81 h. In data set [1], the half-life at 2 µM was above 57.8 h.

For `CCc1cc(OCCCCN)ccc1-c1ccc(C[C@H](NC(=O)[C@H](CC(=O)O)NC(=O)[C@H](CO)NC(=O)[C@@H](NC(=O)[C@](C)(Cc2ccccc2F)NC(=O)[C@@H](NC(=O)CNC(=O)[C@H](Cc2nn[nH]n2)NC(=O)C(C)(C)C(N)=O)[C@@H](C)O)[C@@H](C)O)C(=O)N[C@@H](CCCc2cc(C)cc(C)c2)C(N)=O)cc1` [P4] (X2-[Ala(1H-tetrazol-5-yl)]GT[αMePhe(2-F)]TSD[Bip(2'-Et,4'-O(CH2)4NH2)][Nva(5-(3,5-Me2Ph))]-NH2), at human GLP1R, the “HEK293/CRE-LUC/hGLP1R S/N” value is given as 66.9, the “HEK293/CRE-LUC/hGLP1R Relative Potency (% P8 EC50)” value is listed as 6.3% and the “HEK293/CRE-LUC/hGLP1R Relative Signal:Noise (% P8)” value is given as 101.8%. In the data set on HEK293/CRE-Luc cells, the EC50 is above 200 nM and the “HEK293/CRE-LUC S/N” value came to 1.6. Also, the “Human plasma stability assay T½” value in data set [1] (tested for 1 day (A)) is above 57.81 h. In addition, in data set [1], the half-life at 2 µM was above 57.8 h.

As for `CCc1cc(OCCCCN)ccc1-c1ccc(C[C@H](NC(=O)[C@H](CC(=O)O)NC(=O)[C@H](CO)NC(=O)[C@@H](NC(=O)[C@](C)(Cc2ccccc2F)NC(=O)[C@@H](NC(=O)CNC(=O)[C@H](Cc2nn[nH]n2)NC(=O)C(C)(C)c2ccn[nH]2)[C@@H](C)O)[C@@H](C)O)C(=O)N[C@@H](CCCc2cc(C)cc(C)c2)C(N)=O)cc1` [P6] (X3-[Ala(1H-tetrazol-5-yl)]GT[αMePhe(2-F)]TSD[Bip(2'-Et,4'-O(CH2)4NH2)][Nva(5-(3,5-Me2Ph))]-NH2), at human GLP1R, the “HEK293/CRE-LUC/hGLP1R S/N” value is listed as 60.7, the “HEK293/CRE-LUC/hGLP1R Relative Potency (% P8 EC50)” value stood at 0.9% and the “HEK293/CRE-LUC/hGLP1R Relative Signal:Noise (% P8)” value worked out at 92.3%. In the data set on HEK293/CRE-Luc cells, the EC50 is above 200 nM and the “HEK293/CRE-LUC S/N” value is given as 1.0. In data set [1] (tested for 1 day (A)), the “Human plasma stability assay T½” value is above 57.81 h. In addition, the half-life at 2 µM in data set [1] is above 57.8 h.

In the case of `CCc1cc(OCCCCN)ccc1-c1ccc(C[C@H](NC(=O)[C@H](CC(=O)O)NC(=O)[C@H](CO)NC(=O)[C@@H](NC(=O)[C@](C)(Cc2ccccc2F)NC(=O)[C@@H](NC(=O)CNC(=O)[C@H](Cc2nn[nH]n2)NC(=O)C(C)(C)C(=O)NCCc2cnc[nH]2)[C@@H](C)O)[C@@H](C)O)C(=O)N[C@@H](CCCc2cc(C)cc(C)c2)C(N)=O)cc1` [P9, (8S,14S,17S,20S,23S,26S)-8-((2H-tetrazol-5-yl)methyl)-26-(((S)-1-(((S)-1-amino-5-(3,5-dimethylphenyl)-1-oxopentan-2-yl)amino)-3-(4′-(4-aminobutoxy)-2′-ethyl-[1,1′-biphenyl]-4-yl)-1-oxopropan-2-yl)carbamoyl)-17-(2-fluorobenzyl)-14,20-bis((R)-1-hydroxyethyl)-23-(hydroxymethyl)-1-(1H-imidazol-5-yl)-5,5,17-trimethyl-4,6,9,12,15,18,21,24-octaoxo-3,7,10,13, 16,19,22,25-octaazaoctacosan-28-oic acid] ({Malonyl(2,2-Me2,histaminyl)}-[Ala(1H-tetrazol-5-yl)]GT[αMePhe(2-F)]TSD[Bip(2'-Et,4'-O(CH2)4NH2)][Nva(5-(3,5-Me2Ph))]-NH2), on human GLP1R, the “HEK293/CRE-LUC/hGLP1R S/N” value is recorded as 75.2, the “HEK293/CRE-LUC/hGLP1R Relative Potency (% P8 EC50)” value is 133.8% and the “HEK293/CRE-LUC/hGLP1R Relative Signal:Noise (% P8)” value is listed as 114.3%. Further, in the data set on HEK293/CRE-Luc cells, the EC50 was above 200 nM and the “HEK293/CRE-LUC S/N” value was found to be 1.3. Moreover, in data set [1] (tested for 1 day (A)), the “Human plasma stability assay T½” value was above 57.81 h. In data set [1], the half-life at 2 µM was above 57.8 h.

With `CCc1cc(OCCCCN)ccc1-c1ccc(C[C@H](NC(=O)[C@H](CC(=O)O)NC(=O)[C@H](CO)NC(=O)[C@@H](NC(=O)[C@](C)(Cc2ccccc2F)NC(=O)[C@@H](NC(=O)CNC(=O)[C@H](Cc2nn[nH]n2)NC(=O)[C@H](C)NC(=O)[C@@H](N)Cc2cnc[nH]2)[C@@H](C)O)[C@@H](C)O)C(=O)N[C@@H](CCCc2cc(C)cc(C)c2)C(N)=O)cc1` [P10] (H-HA[Ala(1H-tetrazol-5-yl)]GT[αMePhe(2-F)]TSD[Bip(2'-Et,4'-O(CH2)4NH2)][Nva(5-(3,5-Me2Ph))]-NH2), at human GLP1R, the “HEK293/CRE-LUC/hGLP1R S/N” value stood at 45.1, the “HEK293/CRE-LUC/hGLP1R Relative Potency (% P8 EC50)” value came out at 38.0% and the “HEK293/CRE-LUC/hGLP1R Relative Signal:Noise (% P8)” value came out at 68.6%. Also, in the data set on HEK293/CRE-Luc cells, the EC50 is above 200 nM and the “HEK293/CRE-LUC S/N” value was 1.2. Further, the “Human plasma stability assay T½” value in data set [1] (tested for 2 hrs (B)) came to 1.83 h. In addition, the half-life at 2 µM in data set [1] was 1.8 h.

For `CCc1cc(OCCCCN)ccc1-c1ccc(C[C@H](NC(=O)[C@H](CC(=O)O)NC(=O)[C@H](CO)NC(=O)[C@@H](NC(=O)[C@](C)(Cc2ccccc2F)NC(=O)[C@@H](NC(=O)CNC(=O)[C@H](Cc2nn[nH]n2)NC(=O)CCCCCc2cnc[nH]2)[C@@H](C)O)[C@@H](C)O)C(=O)N[C@@H](CCCc2cc(C)cc(C)c2)C(N)=O)cc1` [P11] (X1-[Ala(1H-tetrazol-5-yl)]GT[αMePhe(2-F)]TSD[Bip(2'-Et,4'-O(CH2)4NH2)][Nva(5-(3,5-Me2Ph))]-NH2), on human GLP1R, the “HEK293/CRE-LUC/hGLP1R S/N” value is on record as 54.8, the “HEK293/CRE-LUC/hGLP1R Relative Potency (% P8 EC50)” value stood at 0.8% and the “HEK293/CRE-LUC/hGLP1R Relative Signal:Noise (% P8)” value turned out to be 83.4%. Besides, in the data set on HEK293/CRE-Luc cells, the EC50 was above 200 nM and the “HEK293/CRE-LUC S/N” value is on record as 1.1. The “Human plasma stability assay T½” value in data set [1] (tested for 1 day (A)) was above 57.81 h. Moreover, the half-life at 2 µM in data set [1] is above 57.8 h.

Turning to `CCc1cc(OCCCCN)ccc1-c1ccc(C[C@H](NC(=O)[C@H](CC(=O)O)NC(=O)[C@H](CO)NC(=O)[C@@H](NC(=O)[C@](C)(Cc2ccccc2F)NC(=O)[C@@H](NC(=O)CNC(=O)[C@H](Cc2nn[nH]n2)NC(=O)[C@@]2(C)CCN(CCc3cnc[nH]3)C2=O)[C@@H](C)O)[C@@H](C)O)C(=O)N[C@@H](CCCc2cc(C)cc(C)c2)C(N)=O)cc1` [P15-R] (X5-[Ala(1H-tetrazol-5-yl)]GT[αMePhe(2-F)]TSD[Bip(2'-Et,4'-O(CH2)4NH2)][Nva(5-(3,5-Me2Ph))]-NH2), on human GLP1R, the “HEK293/CRE-LUC/hGLP1R S/N” value was found to be 67.8, the “HEK293/CRE-LUC/hGLP1R Relative Potency (% P8 EC50)” value turned out to be 40.3% and the “HEK293/CRE-LUC/hGLP1R Relative Signal:Noise (% P8)” value is 103.1%. In the data set with HEK293/CRE-Luc cells, the EC50 was above 200 nM and the “HEK293/CRE-LUC S/N” value turned out to be 1.1.
